Assay [1] deals with T1, KRAS (Homo sapiens, UniProt P01116, C118S/G12V).
T1 construct: residues 1-169, C118S background; His6 tag removed, E. coli; biotinylated for SPR
The assay is described as follows: SPR, biotinylated KRAS immobilised. Format: binding. For orientation: SPR reads the build-up and loss of mass on a sensor chip optically.

Assay [2] has as its system HEK293. The assay is described as follows: cells. Conditions: Homo sapiens, HEK293, 120 h; read-out: IC50 Proliferation HEK293. More on the design: Inhibition of cell proliferation, 5 days. The text has this:
(§1) Next, we set out to test the ability of a single pan-KRAS degrading molecule, compound 4, to selectively suppress oncogenic signaling and proliferation in cancer cell lines driven by diverse KRAS mutants. To this end, we first confirmed degradation of KRAS by compound 4 in KRAS-dependent (GP2d, SW620 and NCI-H358 expressing KRAS^G12D, - G12V or -G12C, respectively) as well as in KRAS independent (A-375, HEK293) cell lines (Fig. 3A, fig. S4A). […] Both inhibition and degradation repressed the established markers of MAPK signaling pERK (fig. S4B-D) and DUSP6 (Fig. 3B, fig. S4E) in KRAS dependent cell lines. […] Neither degradation nor inhibition had appreciable antiproliferative effects in the KRAS independent cell lines A-375 and HEK293 (Fig. 3C, fig. S4F). […] Pan-KRAS degradation impacts MAPK signaling and cancer cell proliferation.

The subject of assay [3] is GP2d. The assay is described as follows: cells. Set-up: Inhibition of cell proliferation, 5 days. Particulars: 120 h, read-out: IC50 Proliferation GP2d.
Source text: as §1

Assay [4] deals with A375. The assay is described as follows: cells. More on the design: Inhibition of cell proliferation, 5 days. Particulars: Homo sapiens, A-375, 120 h; read-out: IC50 Proliferation A375.
Source text: as §1

The test system of assay [5] is NCI-H358. Briefly: cells. Set-up: Inhibition of cell proliferation, 5 days. Conditions: Homo sapiens, NCI-H358, 120 h; read-out: IC50 Proliferation NCI-H358.
Source text: as §1

Assay [6] has as its system SW620. Briefly: cells. Set-up: Inhibition of cell proliferation, 5 days. Conditions: Homo sapiens, SW-620, 120 h; read-out: IC50 Proliferation SW620.
Source text: as §1

Assay [7] concerns the target T2, KRAS^WT (Homo sapiens, UniProt P01116).
T2 construct: endogenous wild type
Briefly: cell-based. Set-up: KRAS degradation by capillary electrophoresis immunodetection. Conditions: A-375; read-out: Dmax 24 h A375 [%]. The method, then: (§2) Protein Detection by Capillary Electrophoresis Cells (50 000) were seeded the day before treatment into 96-well clear-flat bottom plates and incubated overnight (37 °C, humidified tissue culture incubator, 5% CO2). Compounds were added from DMSO stock solution using a digital dispenser and cells are incubated at 37 °C as specified (24 hours for KRAS degradation, 6 hours for determination of pERK levels). At the end of the incubation, medium was removed, cells washed with ice cold PBS, PBS removed and 50 µL lysis buffer (Meso Scale Discovery #R60TX-2) supplemented with 1:100 protease inhibitor solution, 1:100 phosphatase inhibitor I, 1:100 phosphatase inhibitor II (Meso Scale Discovery #R70AA-1), 0.5 µL/mL Benzonase (Novagen #70664-3) and 10 mM dithiothreitol added to each well. Plates with lysis buffer were immediately transferred to -80 °C freezer for at least 2 hours and then thawed on ice. Lysates were transferred to a 96 well V-bottom plate and insoluble debris was pelleted by centrifugation for 20 min. at 4 000 rpm. 40 µL of the supernatant were transferred to a fresh Eppendorf PCR plate. Analysis of protein levels was conducted using the Wes System, ProteinSimple (https://www.bio-techne.com/) as specified by the manufacturer. Briefly, Wes Master Mix (12-230 kDa WES Separation Module, 8 × 25 capillary cartridges, ProteinSimple #SM-W004) and molecular weight markers were prepared as specified in the manufacturer’s recommendations. To detect primary antibodies, anti-rabbit (Protein Simple #DM-001) or anti-mouse (Protein Simple #DM-002) detection modules were used. 7.2 µL lysate + 1.8 µL master mix were combined and heated to 95 °C for 5 min. […] Next, we set out to test the ability of a single pan-KRAS degrading molecule, compound 4, to selectively suppress oncogenic signaling and proliferation in cancer cell lines driven by diverse KRAS mutants. To this end, we first confirmed degradation of KRAS by compound 4 in KRAS-dependent (GP2d, SW620 and NCI-H358 expressing KRAS^G12D, - G12V or -G12C, respectively) as well as in KRAS independent (A-375, HEK293) cell lines (Fig. 3A, fig. S4A). […] Both inhibition and degradation repressed the established markers of MAPK signaling pERK (fig. S4B-D) and DUSP6 (Fig. 3B, fig. S4E) in KRAS dependent cell lines. […] Neither degradation nor inhibition had appreciable antiproliferative effects in the KRAS independent cell lines A-375 and HEK293 (Fig. 3C, fig. S4F).

The test system of assay [8] is HEK293. Briefly: cells. More on the design: pERK levels by capillary electrophoresis. Particulars: Homo sapiens, HEK293, 6 h. The method, then: (§3) Protein Detection by Capillary Electrophoresis Cells (50 000) were seeded the day before treatment into 96-well clear-flat bottom plates and incubated overnight (37 °C, humidified tissue culture incubator, 5% CO2). Compounds were added from DMSO stock solution using a digital dispenser and cells are incubated at 37 °C as specified (24 hours for KRAS degradation, 6 hours for determination of pERK levels). At the end of the incubation, medium was removed, cells washed with ice cold PBS, PBS removed and 50 µL lysis buffer (Meso Scale Discovery #R60TX-2) supplemented with 1:100 protease inhibitor solution, 1:100 phosphatase inhibitor I, 1:100 phosphatase inhibitor II (Meso Scale Discovery #R70AA-1), 0.5 µL/mL Benzonase (Novagen #70664-3) and 10 mM dithiothreitol added to each well. Plates with lysis buffer were immediately transferred to -80 °C freezer for at least 2 hours and then thawed on ice. Lysates were transferred to a 96 well V-bottom plate and insoluble debris was pelleted by centrifugation for 20 min. at 4 000 rpm. 40 µL of the supernatant were transferred to a fresh Eppendorf PCR plate. Analysis of protein levels was conducted using the Wes System, ProteinSimple (https://www.bio-techne.com/) as specified by the manufacturer. Briefly, Wes Master Mix (12-230 kDa WES Separation Module, 8 × 25 capillary cartridges, ProteinSimple #SM-W004) and molecular weight markers were prepared as specified in the manufacturer’s recommendations. To detect primary antibodies, anti-rabbit (Protein Simple #DM-001) or anti-mouse (Protein Simple #DM-002) detection modules were used. 7.2 µL lysate + 1.8 µL master mix were combined and heated to 95 °C for 5 min. Th

For assay [9], the system named is GP2d. The assay is described as follows: cells. Set-up: pERK levels by capillary electrophoresis. Particulars: GP2d, 6 h. Here is the method: as §3
The subject of assay [10] is A375. Briefly: cells. Particulars: Homo sapiens, A-375, 6 h. Set-up: pERK levels by capillary electrophoresis. The method, then: as §3
The test system of assay [11] is SW620. Briefly: cells. More on the design: pERK levels by capillary electrophoresis. Particulars: Homo sapiens, SW-620, 6 h. Here is the method: as §3
Assay [12] has as its target KRAS^G12D (Homo sapiens, UniProt P01116, G12D). Briefly: cell-based. More on the design: endogenous; KRAS degradation by capillary electrophoresis immunodetection. Conditions: GP2d; read-out: Dmax 24 h GP2d [%]. The method, then: as §2
In assay [13] the target is KRAS^G12V (Homo sapiens, UniProt P01116, G12V). Briefly: cell-based. Conditions: SW-620; read-out: Dmax 24 h SW620 [%]. Set-up: endogenous; KRAS degradation by capillary electrophoresis immunodetection. Here is the method: as §2
The test system of assay [14] is GP2d. Briefly: cells. Particulars: GP2d, 6 h; read-out: IC50 DUSP6. Set-up: DUSP6 modulation. The text has this:
(§4) Next, we set out to test the ability of a single pan-KRAS degrading molecule, compound 4, to selectively suppress oncogenic signaling and proliferation in cancer cell lines driven by diverse KRAS mutants. To this end, we first confirmed degradation of KRAS by compound 4 in KRAS-dependent (GP2d, SW620 and NCI-H358 expressing KRAS^G12D, - G12V or -G12C, respectively) as well as in KRAS independent (A-375, HEK293) cell lines (Fig. 3A, fig. S4A). […] Both inhibition and degradation repressed the established markers of MAPK signaling pERK (fig. S4B-D) and DUSP6 (Fig. 3B, fig. S4E) in KRAS dependent cell lines. […] Neither degradation nor inhibition had appreciable antiproliferative effects in the KRAS independent cell lines A-375 and HEK293 (Fig. 3C, fig. S4F).

Assay [15] deals with SW620. Briefly: cells. Set-up: DUSP6 modulation. Particulars: Homo sapiens, SW-620, 6 h; read-out: IC50 DUSP6.
Source text: as §4

The test system of assay [16] is NCI-H358. The assay is described as follows: cells. More on the design: pERK levels by capillary electrophoresis. Conditions: Homo sapiens, NCI-H358, 6 h. The method, then:
as §3

Assay [17] deals with NCI-H358. Briefly: cells. Set-up: DUSP6 modulation. Particulars: Homo sapiens, NCI-H358, 6 h; read-out: IC50 DUSP6.
Source text: as §4

Read-outs that look alike come from different tables or passages of the source.

T1 sequence (P01116 1-169 G12V/C118S): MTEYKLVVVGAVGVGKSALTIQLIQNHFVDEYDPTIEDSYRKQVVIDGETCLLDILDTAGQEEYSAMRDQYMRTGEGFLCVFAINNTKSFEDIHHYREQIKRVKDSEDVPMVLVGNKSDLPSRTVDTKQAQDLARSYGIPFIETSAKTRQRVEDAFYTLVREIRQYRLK
KRAS^G12V, sequence (P01116 whole entry G12V): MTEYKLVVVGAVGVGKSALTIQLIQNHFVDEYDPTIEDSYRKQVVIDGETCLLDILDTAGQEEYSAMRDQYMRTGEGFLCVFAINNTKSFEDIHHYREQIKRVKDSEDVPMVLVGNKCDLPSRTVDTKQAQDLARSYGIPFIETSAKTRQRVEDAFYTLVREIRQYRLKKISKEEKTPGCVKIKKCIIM
KRAS^G12D, sequence (P01116 whole entry G12D): as the sequence (P01116 whole entry G12V) above, with V12D counted along it
T2 sequence (P01116 whole entry): as the sequence (P01116 whole entry G12V) above, with V12G counted along it

Take `C[C@H]1CNCCCN1c1nccc(-c2noc([C@@]3(C)CCCc4sc(N)c(C#N)c43)n2)n1` [compound 1]: the equilibrium dissociation constant (Kd) – broadly, the concentration at which binding is half-saturated – in assay [1] was 25 nM.

Take `C[C@H](Oc1ccnc(-c2noc([C@@]3(C)CCCc4sc(N)c(C#N)c43)n2)n1)[C@@H]1CCCN1C` [BI-2865]: the IC50 in [2] is over 1000 nM; in [3], 251 nM; in assay [4] it was over 1000 nM; in [5], 613 nM; in assay [6] it was 208 nM.

For the compound `C#Cc1c(F)ccc2cc(O)cc(-c3ncc4c(N5C[C@H]6CC[C@@H](C5)N6)nc(OC[C@@]56CCCN5C[C@H](F)C6)nc4c3F)c12` [MRTX1133], the Dmax in assay [7], in [12] and in assay [13] was under 15% throughout. The IC50 in assay [8] was over 1000 nM; in assay [9] it was 1.3 nM; in [10], over 1000 nM; in assay [11] it was over 1000 nM; in assay [14], 0.1 nM; in assay [15] it was 310 nM. Moreover, the IC50 in assay [3] was found to be 2.4 nM.

With `C=CC(=O)N1CCN(c2nc(=O)n(-c3c(C)ccnc3C(C)C)c3nc(-c4c(O)cccc4F)c(F)cc23)[C@@H](C)C1` [sotorasib], the IC50 amounted to 29 nM in assay [16], 5.6 nM in assay [17] and 12.3 nM in assay [5].

Values taken from doi:10.1101/2023.10.24.563163v2, “Targeting cancer with small molecule pan-KRAS degraders” (biorxiv, 2024).
